Assay [1] deals with T1, human cannabinoid CB1 receptor (Homo sapiens, UniProt P21554).
T1 construct: expressed in transfected cells; host or cells: Chinese hamster ovary (CHO) cells, membrane preparation
As to the kind of experiment: In vitro affinity for human cannabinoid CB1 receptors ([3H]CP-55,940 radioligand binding, CHO cell membranes). Here is the method: In vitro Affinity for Human Cannabinoid CB1 Receptors
The affinity of the compounds of the invention for cannabinoid CB1 receptors can be determined using membrane preparations of Chinese hamster ovary (CHO) cells in which the human cannabinoid CB1 receptor is stably transfected in conjunction with [^3H]CP-55,940 as radioligand. After incubation of a freshly prepared cell membrane preparation with the [^3H]-ligand, with or without addition of compounds of the invention, separation of bound and free ligand is performed by filtration over glassfiber filters. Radioactivity on the filter is measured by liquid scintillation counting.

In assay [2] the target is T2, human cannabinoid CB2 receptor (Homo sapiens, UniProt P34972).
T2 construct: expressed in transfected cells; host or cells: Chinese hamster ovary (CHO) cells, membrane preparation
T2 sequence (P34972 whole entry): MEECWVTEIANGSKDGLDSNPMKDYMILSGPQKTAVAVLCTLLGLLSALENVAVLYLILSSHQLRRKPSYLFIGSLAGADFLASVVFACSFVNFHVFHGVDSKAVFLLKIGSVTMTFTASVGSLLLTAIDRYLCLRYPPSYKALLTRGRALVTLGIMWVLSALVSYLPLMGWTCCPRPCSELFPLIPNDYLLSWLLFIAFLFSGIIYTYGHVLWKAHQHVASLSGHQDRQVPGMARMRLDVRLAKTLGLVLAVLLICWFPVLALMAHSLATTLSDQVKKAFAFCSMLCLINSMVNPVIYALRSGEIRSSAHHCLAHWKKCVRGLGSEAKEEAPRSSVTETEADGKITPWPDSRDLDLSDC
As to the kind of experiment: In vitro affinity for human cannabinoid CB2 receptors ([3H]CP-55,940 radioligand binding, CHO cell membranes). How it is done: In Vitro Affinity for Human Cannabinoid CB2 Receptors
The affinity of the compounds of the invention for cannabinoid CB2 receptors can be determined using membrane preparations of Chinese hamster ovary (CHO) cells in which the human cannabinoid CB2 receptor is stably transfected in conjunction with [^3H]CP-55,940 as radioligand. After incubation of a freshly prepared cell membrane preparation with the [^3H]-ligand, with or without addition of compounds of the invention, separation of bound and free ligand is performed by filtration over glassfiber filters. Radioactivity on the filter is measured by liquid scintillation counting.

[3] abbreviates: membranes of CHO cells stably transfected with human CB1, [3H]CP-55,940 radioligand, read-out: Receptor affinity Human CB1 pKi-value (converted).

Each structure is given as a SMILES string. Read-outs that look alike come from different tables or passages of the source.

T1 sequence (P21554 whole entry): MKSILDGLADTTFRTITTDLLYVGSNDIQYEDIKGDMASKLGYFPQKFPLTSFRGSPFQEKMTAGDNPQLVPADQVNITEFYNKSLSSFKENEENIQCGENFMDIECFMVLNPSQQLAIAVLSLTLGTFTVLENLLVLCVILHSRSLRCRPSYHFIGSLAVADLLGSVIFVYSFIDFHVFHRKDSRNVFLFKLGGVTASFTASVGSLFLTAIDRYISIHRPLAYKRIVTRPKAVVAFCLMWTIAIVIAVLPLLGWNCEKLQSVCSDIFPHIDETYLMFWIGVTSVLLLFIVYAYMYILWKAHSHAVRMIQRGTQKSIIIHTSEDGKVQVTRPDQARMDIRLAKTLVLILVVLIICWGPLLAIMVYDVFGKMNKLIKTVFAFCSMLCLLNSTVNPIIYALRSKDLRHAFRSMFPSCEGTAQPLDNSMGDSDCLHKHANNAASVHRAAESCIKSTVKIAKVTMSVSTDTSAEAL

In the case of `CCCCC(=O)c1nc(-c2ccc(Cl)cc2Cl)c(-c2ccccc2)s1` [Example 1, 1-[4-(2,4-dichlorophenyl)-5-phenylthiazol-2-yl]pentan-1-one], in assay [1] (setting [3]), the Ki was 251 nM.

`CCCCCCC(=O)c1nc(-c2ccccc2Cl)c(-c2ccccc2)s1` [Example 4]: the Ki in assay [1] (setting [3]) is 158 nM.

As for `CCCCCc1nc(C(=O)NC23CC4CC(CC(C4)C2)C3)sc1-c1ccccc1` [Example 9, N-(adamant-1-yl)-4-(n-pentyl)-5-phenylthiazole-2-carboxamide], the Ki in assay [1] (setting [3]) is 15.8 nM; in assay [2] (membranes of CHO cells stably transfected with human CB2, [3H]CP-55,940 radioligand, read-out: Receptor affinity Human CB2 pKi-value (converted)), 7.94 nM.

Take `CCCCCc1nc(C(=O)NC2CCCCC2)sc1-c1ccccc1` [Example 11]: the Ki in assay [1] was 251 nM; in assay [2], 20 nM.

The values are drawn from patent publication US20050065189A1, “Thiazole derivatives as cannabinoid receptor modulators” (SOLVAY PHARMACEUTICALS B.V., priority 2003, published 2005).
